The values that follow come from patent US9006487B2, “Amine-containing lipids and uses thereof” (Massachusetts Institute of Technology, priority 2005, dated 2015).

The experiment concerns cos-7 cells. Kind of experiment: DNA transfection: luciferase expression relative to Lipofectamine 2000. The class given is cell-based. The settings on record: luciferase assay after 48 hours; for Luciferase expression as a percentage of that achieved using Lipofectamine 2000: 300 ng Luciferase DNA per well; for % of the luciferase activity obtained from the use of Lipofectamine 2000: 300 ng DNA per well. The method in brief:
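cos-7 cells were transfected with 300 ng/well luciferase DNA complexed with lipid at ratios from 2.5 to 25 w/w. Bright-Glo luminescence was read after 48 hours and converted to ng luciferase by standard curve. Data are percent of the Lipofectamine 2000 control (2.5 w/w).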

Regarding `CCCCCCCCCCCCCOC(=O)CCN(CCOCCO)CCC(=O)OCCCCCCCCCCCCC` [LE31], the “Luciferase expression as a percentage of that achieved using Lipofectamine 2000” value (shortened to “Luciferase expression as a percentage”) (lipid/DNA 2.5 w/w) turned out to be 1.0%; the “Luciferase expression as a percentage” value (lipid/DNA 5 w/w) was 1.0%; the “Luciferase expression as a percentage” value (lipid/DNA 10 w/w) was 0.9%; the “Luciferase expression as a percentage” value (lipid/DNA 15 w/w) came to 2.5%; the “Luciferase expression as a percentage” value (lipid/DNA 20 w/w) was 2.9%; the “Luciferase expression as a percentage” value (lipid/DNA 25 w/w) turned out to be 9.5%.
For the compound `CCCCCCCCCCCCCOC(=O)CCN(CC)CCCN(CC)CCC(=O)OCCCCCCCCCCCCC` [LE64], the “Luciferase expression as a percentage” value (lipid/DNA 2.5 w/w) amounted to 0.1%; the “Luciferase expression as a percentage” value (lipid/DNA 5 w/w) is 0.1%; the “Luciferase expression as a percentage” value (lipid/DNA 10 w/w) came to 0.1%; the “Luciferase expression as a percentage” value (lipid/DNA 15 w/w) worked out at 0.0%; the “Luciferase expression as a percentage” value (lipid/DNA 20 w/w) was 0.1%; the “Luciferase expression as a percentage” value (lipid/DNA 25 w/w) turned out to be 0.1%.
For the compound `CCCCCCCCCCCCCOC(=O)CCN(CCC(=O)OCCCCCCCCCCCCC)CCN(CCO)CCO` [LE86], the “% of the luciferase activity obtained from the use of Lipofectamine 2000” value (shortened to “% of the luciferase activity obtained”) (2.5 w/w lipid to DNA) is 31.1%; the “% of the luciferase activity obtained” value (5 w/w lipid to DNA) worked out at 22.7%; the “% of the luciferase activity obtained” value (10 w/w lipid to DNA) is on record as 22.6%; the “% of the luciferase activity obtained” value (15 w/w lipid to DNA) is given as 2.5%; the “% of the luciferase activity obtained” value (20 w/w lipid to DNA) is 0.0%; the “% of the luciferase activity obtained” value (25 w/w lipid to DNA) is 0.0%.
In the case of `CCCCCCCCCCCCCOC(=O)CCN(CCC(=O)OCCCCCCCCCCCCC)CCN1CCOCC1` [LE90], the “Luciferase expression as a percentage” value by setting is: (lipid/DNA 2.5 w/w) 0.5%; (lipid/DNA 5 w/w) 0.3%; (lipid/DNA 10 w/w) 0.4%; (lipid/DNA 15 w/w) 0.4%; (lipid/DNA 20 w/w) 0.4%; (lipid/DNA 25 w/w) 0.4%.
`CCCCCCCCCCCCCCOC(=O)CCN(CCCOC)CCC(=O)OCCCCCCCCCCCCCC` [LF1]: the “Luciferase expression as a percentage” value turned out to be 0.1% (lipid/DNA 2.5 w/w); 0.1% (lipid/DNA 5 w/w); 0.0% (lipid/DNA 10 w/w); 0.0% (lipid/DNA 15 w/w); 0.1% (lipid/DNA 20 w/w); 0.1% (lipid/DNA 25 w/w).
`CCCCCCCCCCCCCCOC(=O)CCN(CCC(=O)OCCCCCCCCCCCCCC)CC1COC(C)(C)O1` (stereo not drawn) [LF7]: the “Luciferase expression as a percentage” value came out at 0.1% (lipid/DNA 2.5 w/w); 0.1% (lipid/DNA 5 w/w); 0.0% (lipid/DNA 10 w/w); 0.0% (lipid/DNA 15 w/w); 0.1% (lipid/DNA 20 w/w); 0.1% (lipid/DNA 25 w/w).
Take `CCCCCCCCCCCCCCOC(=O)CCN(CCOC)CCC(=O)OCCCCCCCCCCCCCC` [LF10]: the “Luciferase expression as a percentage” value reads like this: (lipid/DNA 2.5 w/w) 0.1%; (lipid/DNA 5 w/w) 0.1%; (lipid/DNA 10 w/w) 0.0%; (lipid/DNA 15 w/w) 0.0%; (lipid/DNA 20 w/w) 0.1%; (lipid/DNA 25 w/w) 0.1%.
In the case of `CCCCCCCCCCCCCCOC(=O)CCN(CCOCC)CCC(=O)OCCCCCCCCCCCCCC` [LF11], the “Luciferase expression as a percentage” value runs as follows: (lipid/DNA 2.5 w/w) 0.1%; (lipid/DNA 5 w/w) 0.1%; (lipid/DNA 10 w/w) 0.0%; (lipid/DNA 15 w/w) 0.0%; (lipid/DNA 20 w/w) 0.1%; (lipid/DNA 25 w/w) 0.1%.
With `CCCCCCCCCCCCCCOC(=O)CCN(CCC(=O)OCCCCCCCCCCCCCC)CC(OC)OC` [LF13], the “Luciferase expression as a percentage” value by setting is: (lipid/DNA 2.5 w/w) 0.1%; (lipid/DNA 5 w/w) 0.1%; (lipid/DNA 10 w/w) 0.0%; (lipid/DNA 15 w/w) 0.0%; (lipid/DNA 20 w/w) 0.1%; (lipid/DNA 25 w/w) 0.1%.
Turning to `CCCCCCCCCCCCCCOC(=O)CCN(CCC(=O)OCCCCCCCCCCCCCC)CC1CCCO1` (stereo not drawn) [LF15], the “Luciferase expression as a percentage” value is, setting by setting: (lipid/DNA 2.5 w/w) 0.1%; (lipid/DNA 5 w/w) 0.1%; (lipid/DNA 10 w/w) 0.0%; (lipid/DNA 15 w/w) 0.0%; (lipid/DNA 20 w/w) 0.1%; (lipid/DNA 25 w/w) 0.1%.
In the case of `CCCCCCCCCCCCCCOC(=O)CCN(CCC(=O)OCCCCCCCCCCCCCC)CCc1ccc(OC)c(OC)c1` [LF17], the “Luciferase expression as a percentage” value runs as follows: (lipid/DNA 2.5 w/w) 0.1%; (lipid/DNA 5 w/w) 0.1%; (lipid/DNA 10 w/w) 0.1%; (lipid/DNA 15 w/w) 0.1%; (lipid/DNA 20 w/w) 0.1%; (lipid/DNA 25 w/w) 0.1%.
For the compound `CCCCCCCCCCCCCCOC(=O)CCN(CCCO)CCC(=O)OCCCCCCCCCCCCCC` [LF20], the “Luciferase expression as a percentage” value came to 0.2% (lipid/DNA 2.5 w/w); 0.4% (lipid/DNA 5 w/w); 0.3% (lipid/DNA 10 w/w); 0.2% (lipid/DNA 15 w/w); 0.1% (lipid/DNA 20 w/w); 0.1% (lipid/DNA 25 w/w).
Take `CCCCCCCCCCCCCCOC(=O)CCN(CCC(=O)OCCCCCCCCCCCCCC)C[C@@H](C)O` [LF21]: the “Luciferase expression as a percentage” value came to 0.4% (lipid/DNA 2.5 w/w); 0.4% (lipid/DNA 5 w/w); 0.4% (lipid/DNA 10 w/w); 0.4% (lipid/DNA 15 w/w); 0.4% (lipid/DNA 20 w/w); 0.4% (lipid/DNA 25 w/w).
Take `CCCCCCCCCCCCCCOC(=O)CCN(CCC(=O)OCCCCCCCCCCCCCC)C[C@H](C)O` [LF22]: the “Luciferase expression as a percentage” value runs as follows: (lipid/DNA 2.5 w/w) 0.1%; (lipid/DNA 5 w/w) 0.1%; (lipid/DNA 10 w/w) 0.1%; (lipid/DNA 15 w/w) 0.1%; (lipid/DNA 20 w/w) 0.1%; (lipid/DNA 25 w/w) 0.1%.
As to `CCCCCCCCCCCCCCOC(=O)CCN(CCC(=O)OCCCCCCCCCCCCCC)CC(O)CO` (stereo not drawn) [LF24], the “Luciferase expression as a percentage” value (lipid/DNA 2.5 w/w) is reported as 0.1%; the “Luciferase expression as a percentage” value (lipid/DNA 5 w/w) is given as 0.1%; the “Luciferase expression as a percentage” value (lipid/DNA 10 w/w) was 0.1%; the “Luciferase expression as a percentage” value (lipid/DNA 15 w/w) was 0.2%; the “Luciferase expression as a percentage” value (lipid/DNA 20 w/w) was found to be 0.3%; the “Luciferase expression as a percentage” value (lipid/DNA 25 w/w) is reported as 0.3%.
Turning to `CCCCCCCCCCCCCCOC(=O)CCN(CCC(=O)OCCCCCCCCCCCCCC)C(CO)CO` [LF25], the “Luciferase expression as a percentage” value is 0.1% (lipid/DNA 2.5 w/w); 0.2% (lipid/DNA 5 w/w); 0.3% (lipid/DNA 10 w/w); 0.4% (lipid/DNA 15 w/w); 0.9% (lipid/DNA 20 w/w); 1.5% (lipid/DNA 25 w/w).
As for `CCCCCCCCCCCCCCOC(=O)CCN(CCC(=O)OCCCCCCCCCCCCCC)C(C)(CO)CO` [LF26], the “Luciferase expression as a percentage” value reads like this: (lipid/DNA 2.5 w/w) 0.1%; (lipid/DNA 5 w/w) 0.2%; (lipid/DNA 10 w/w) 0.7%; (lipid/DNA 15 w/w) 0.1%; (lipid/DNA 20 w/w) 0.1%; (lipid/DNA 25 w/w) 0.3%.
